Several values for one entry are separate records, joined by “and”; a condition that tells them apart may be missing. Identical values can stand only once. Entries after “also recorded” stand apart in the source; their conditions may differ.
Experiments:
[1] = biological target: T1, trypsin (Sus scrofa, UniProt P00761); assay: Deacetylation of 3/15ADON by trypsin; type: in vitro ADME, porcine; conditions: trypsin 0.35 mg/mL, PBS pH 7.4, 37 °C, substrate 100 μM
T1 construct: purchased Sigma-Aldrich
T1 sequence (P00761 9-231): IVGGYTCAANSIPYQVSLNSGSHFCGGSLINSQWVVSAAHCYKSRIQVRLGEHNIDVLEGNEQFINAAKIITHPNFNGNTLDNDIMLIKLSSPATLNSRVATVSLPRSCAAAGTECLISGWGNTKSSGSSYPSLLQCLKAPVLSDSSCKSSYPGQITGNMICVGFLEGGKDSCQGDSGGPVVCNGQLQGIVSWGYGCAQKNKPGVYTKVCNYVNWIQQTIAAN
Method: (§1) Stock solutions of DON, 3ADON and 15ADON at 2 mg/mL were prepared in absolute ethanol and stored at −20 °C. For deacetylation assay, 3- or 15ADON were incubated with cells, explants, bacteria or digestive enzymes after being diluted in PBS^++ at a final concentration of 100 μM. PBS^++ solution containing only ethanol (at 1.5% final concentration) or DON (at 100 μM) were used in parallel as negative and positive control, respectively. For cells and explants, deacetylation assay take place in 6-well plates, wells being filled with 2 mL of PBS^++ containing either ethanol, DON, 3- or 15ADON. For fecal bacteria and digestive enzyme assay, deacetylation assay was conducted in 2 mL Eppendorf tubes filled with 1.5 mL of PBS^++ containing either ethanol, DON, 3- or 15ADON. In vitro intestinal digestion by luminal enzymes was performed using porcine enzymes from Sigma-Aldrich and physiological conditions. […] In all cases, aliquots of the reaction solution were collected immediately (i.e., “time zero” sample) or after the indicated time period at 37 °C and analyzed by HPLC. […]
(§2) Deacetylation was monitoring both in term of disappearance of 3- or 15ADON and formation of DON. […] Quantification was based on calibration with the corresponding standard using Millinium Software (Waters, Saint Quentin Falavier, France).

[2] = tested on: human fecal bacteria; assay: Deacetylation of 3/15ADON by human fecal bacteria; type: in vitro ADME; conditions: for Disappearance of 3/15ADON, specific activity: fecal bacteria, anaerobic, 37 °C, substrate 100 μM; for % of deacetylation: human fecal bacteria; for Contribution to total deacetylation activity: Bacteria: percentage of sum of specific activities (Figure 8)
Method: (§3) The whole procedure involving fecal bacteria (including the use of fecal bacteria for the deacetylation assay) was performed in an anaerobic cabinet (Coy Laboratory Products, Grass Lake, MI, USA). Human fecal bacteria were isolated from three volunteers (men) working in the department, 40–50 years of age. Stools were collected fresh in a sterile container and were immediately introduced into the anaerobic cabinet. Feces samples were taken by pushing a cut-off disposal 1 mL pipette tip into the inner part of the stools. Samples were then mechanically suspended in 9 mL of degassed PBS^++. Homogenates were allowed to decant for ten minutes to eliminate insoluble matter, and supernatants (1 mL aliquots) were transferred to sterile Eppendorf tubes and used for deacetylation assay.
(§4) Stock solutions of DON, 3ADON and 15ADON at 2 mg/mL were prepared in absolute ethanol and stored at −20 °C. For deacetylation assay, 3- or 15ADON were incubated with cells, explants, bacteria or digestive enzymes after being diluted in PBS^++ at a final concentration of 100 μM. PBS^++ solution containing only ethanol (at 1.5% final concentration) or DON (at 100 μM) were used in parallel as negative and positive control, respectively. For cells and explants, deacetylation assay take place in 6-well plates, wells being filled with 2 mL of PBS^++ containing either ethanol, DON, 3- or 15ADON. For fecal bacteria and digestive enzyme assay, deacetylation assay was conducted in 2 mL Eppendorf tubes filled with 1.5 mL of PBS^++ containing either ethanol, DON, 3- or 15ADON. In vitro intestinal digestion by luminal enzymes was performed using porcine enzymes from Sigma-Aldrich and physiological conditions. Briefly, 3- or 15ADON were incubated with pepsin (at 1.6 mg/mL corresponding to 900 U/mL), trypsin (at 0.35 mg/mL corresponding to 6000 U/mL), pancreatic lipase (at 0.75 mg/mL corresponding to 18 U/mL) or pancreatin (at 1.23 mg/mL, lipase activity >10 U/mL, protease activity >100 U/mL, amylase activity >100 U/mL). Except for pepsin for which the digestion was conducted in HCl solution at 10 mM (pH 2.3), in vitro digestion was performed in PBS^++ (pH 7.4). Finally, deacetylation assay was also performed with commercial pooled S9 fractions from human liver, small intestine and kidneys as well as with pure recombinant human CES1 and CES2. S9 fractions and CES1/2 were used at 0.1 mg/mL and 5 μg/mL (corresponding to CES activity >20 U/mL), respectively. In all cases, aliquots of the reaction solution were collected immediately (i.e., “time zero” sample) or after the indicated time period at 37 °C and analyzed by HPLC. […] In all cases, the experiments were conducted in triplicate (n = 3).
(§5) Deacetylation was monitoring both in term of disappearance of 3- or 15ADON and formation of DON. Measurement of DON, 3ADON and 15ADON concentrations was performed by reversed-phase HPLC using Waters Alliance System equipped with a Waters 2690 XE separation module and a Waters 996 photodiode array detector (Waters, Saint Quentin Falavier, France). The separation was achieved by mean of a LiChroCart column (125 mm × 4 mm) packed with 5 μm RP-18 Purospher gel (Merck, Darmstadt, Germany) and equipped with a LiChroCart precolumn (4 mm × 4 mm) packed with the same material (Merck). The precolumn and column were placed in room temperature. The elution procedure was carried out at 0.7 mL·min^−1 by a methanol–water solvent, using the following conditions: 40% methanol during 2 min followed by an increase in methanol to 50% at 2.1 min.

[3] = Deacetylation of 3/15ADON by liver S9 fraction; type: in vitro ADME, human
Method: as §4
as §5, with “min. The detection wavelength was set at 237 nm allowing the best signal/baseline ratio for simultaneous detection of the three DON forms in the incubation mediums. Under these conditions, DON and 3/15ADON were clearly separated, the retention time being around 2.7 min and 5.7 min, for DON and 3/15ADON, respectively (Figure 9). Quantification was based on calibration with the corresponding standard using Millinium Software (Waters, Saint Quentin Falavier, France).” for “min.”

[4] = tested on: secreted digestive enzymes and fecal bacteria; assay: Deacetylation of 3/15ADON by secreted digestive enzymes and fecal bacteria (taken together); type: in vitro ADME; conditions: digestive enzymes plus fecal bacteria
Method: as §3
Stock solutions of DON, 3ADON and 15ADON at 2 mg/mL were prepared in absolute ethanol and stored at −20 °C. For deacetylation assay, 3- or 15ADON were incubated with cells, explants, bacteria or digestive enzymes after being diluted in PBS^++ at a final concentration of 100 μM. PBS^++ solution containing only ethanol (at 1.5% final concentration) or DON (at 100 μM) were used in parallel as negative and positive control, respectively. […] In all cases, aliquots of the reaction solution were collected immediately (i.e., “time zero” sample) or after the indicated time period at 37 °C and analyzed by HPLC. […]

[5] = biological target: T2, recombinant human CES1 (Homo sapiens, UniProt P23141); assay: Deacetylation of 3/15ADON by recombinant CES1; type: in vitro ADME; parameters: purchased R&D Systems; conditions: 5 μg/mL CES1, up to 24 h, data not shown
T2 sequence (P23141 18-567): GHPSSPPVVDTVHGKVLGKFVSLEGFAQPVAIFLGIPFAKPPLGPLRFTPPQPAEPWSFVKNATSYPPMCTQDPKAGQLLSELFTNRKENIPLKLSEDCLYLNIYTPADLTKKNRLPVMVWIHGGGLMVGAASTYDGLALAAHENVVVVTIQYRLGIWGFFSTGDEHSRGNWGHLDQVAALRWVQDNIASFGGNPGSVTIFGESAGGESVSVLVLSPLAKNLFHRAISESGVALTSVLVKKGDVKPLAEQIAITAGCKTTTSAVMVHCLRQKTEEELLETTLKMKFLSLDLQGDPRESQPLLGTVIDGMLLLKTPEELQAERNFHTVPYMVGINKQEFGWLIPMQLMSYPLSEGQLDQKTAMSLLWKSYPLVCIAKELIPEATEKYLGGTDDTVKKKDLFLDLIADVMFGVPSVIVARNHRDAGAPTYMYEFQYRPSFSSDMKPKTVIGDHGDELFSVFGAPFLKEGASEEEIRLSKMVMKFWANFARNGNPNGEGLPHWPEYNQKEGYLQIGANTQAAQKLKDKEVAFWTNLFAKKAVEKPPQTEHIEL
Method: as §1, §2

[6] = S9 Liver + Benzil 100 μM (Table 1)
[7] = S9 Liver, without benzil (Table 1)
[8] = S9 liver 0.1 mg/mL, 37 °C, substrate 100 μM (Table 3)

SMILES: CC(=O)OC[C@]12[C@H](O)C(=O)C(C)=C[C@H]1O[C@@H]1[C@H](O)C[C@@]2(C)[C@]12CO2 [15ADON, 15-acetyldeoxynivalenol]
- Disappearance of 3/15ADON, specific activity [1]: 94 ± 62 pmol/min/mg
- Disappearance of 3/15ADON, specific activity [2]: 5.8 ± 1.3 pmol/min/mg
- % of deacetylation ([2]; 6 h incubation, 100 μM): no activity
- % of deacetylation ([2]; 48 h incubation): 14.9% ± 3.2%
- Contribution to total deacetylation activity: Bacteria [2]: 0.9%
- Disappearance of 3/15ADON, specific activity [3, 6]: 125 ± 15 pmol/min/mg
- Disappearance of 3/15ADON, specific activity [3, 7]: 166 ± 3.5 pmol/min/mg
- Disappearance of 3/15ADON, specific activity [3, 8]: 208 pmol/min/mg and 208 ± 41 pmol/min/mg
- Contribution to total deacetylation: intestinal luminal events [4]: 34%
- Deacetylation activity of CES1 on 3/15ADON [5]: failed at observing any deacetylation activity; also recorded: unable to cause the deacetylation

SMILES: CC(=O)O[C@@H]1C[C@]2(C)[C@@]3(CO)[C@H](O)C(=O)C(C)=C[C@H]3O[C@H]1[C@@]21CO1 [3ADON, 3-acetyldeoxynivalenol]
- Disappearance of 3/15ADON, specific activity [1]: 57 ± 19 pmol/min/mg
- Disappearance of 3/15ADON, specific activity [2]: 34 ± 0.9 pmol/min/mg
- % of deacetylation ([2]; 6 h incubation, 100 μM): 22.6% ± 15.9%
- % of deacetylation ([2]; 48 h incubation): 82.1% ± 21.9%
- Contribution to total deacetylation activity: Bacteria [2]: 2.6%
- Disappearance of 3/15ADON, specific activity [3, 6]: 1583 ± 39 pmol/min/mg
- Disappearance of 3/15ADON, specific activity [3, 7]: 1729 ± 27 pmol/min/mg
- Disappearance of 3/15ADON, specific activity [3, 8]: 1791 pmol/min/mg and 1791 ± 29 pmol/min/mg
- Contribution to total deacetylation: intestinal luminal events [4]: 16%
- Deacetylation activity of CES1 on 3/15ADON [5]: failed at observing any deacetylation activity; also recorded: unable to cause the deacetylation
